Experimental data from patent US20230149360A1, “ALPHA-2 ADRENERGIC RECEPTOR AGONISTS FOR THE PREVENTION AND/OR THE TREATMENT OF SPLEEN DISORDERS” (UNIVERSITÉ CATHOLIQUE DE LOUVAIN, priority 2020, published 2023).

How the values were obtained:
TiRP tumor bearing mice = assay: Tumor-induced splenomegaly in TiRP tumor bearing mice (spleen weight); assay type: in vivo; settings: 5 mg/kg i.p. daily from tumor size around 500 mm^3 until sacrifice
Source text: TiRP mice have been created by crossing Ink4a/Arf^flox/flox mice with mice carrying a transgenic construct controlled by the tyrosinase promoter and driving the expression of H-Ras^12V and Trap1a which encodes a MAGE-type tumor antigen […]; the promoter is separated from the coding region by a stop cassette made of a floxed self-deleting CreER (Huijbers et al., 2006, Cancer Res 66, 3278-3286). Those mice were backcrossed to a B10.D2 background and bred to homozygosity. TCR[…] mice heterozygous for the H-2Ld/[…]-43-specific TCR transgene were kept on the B10.D2;Rag1^-/- background ([…] et al., 2004, J Immunol 172, 5069-5077). DBA/2 mice and C57BL/6J mice were used in tumor transplantation and mice immunization experiments. All mice used in this study were produced under specific pathogen free (SPF) conditions at the animal facility of the de Duve Institute. All the rules concerning animal welfare have been respected according to the 2010/63/EU Directive. All procedures were performed with the approval of the local Animal Ethical Committee, with reference 2015/UCL/MD/15. A fresh solution of […]-Tamoxifen was prepared by dissolving […]-Tamoxifen ([…]®) in 100% ethanol and mineral oil (ratio 1:9) followed by 30 min sonication, and injected subcutaneously (2 mg/200 μL per mouse) in the neck area of gender-matched 7 weeks old TiRP mice. Tumor appearance was monitored daily and tumors were measured three times/week. Tumor volume (in mm^3) was calculated by the following formula: Volume=width^2×length/2. C57BL/6 mice were injected subcutaneously with 1 million B16F1 or B16F10 melanoma cells at an age between 6 to 8 weeks. The mice received daily injections of guanabenz (5 mg/kg, i.p.) or PBS when the tumor size was around 100 mm^3. Mice were sacrificed when the tumor in control group reached 1,000 mm^3. Spleen were isolated and weighted. […] TiRP tumor bearing mice received daily injections of clonidine (5 mg/kg, i.p.), romifidine (5 mg/kg, i.p.) or PBS when the tumor size was around 500 mm^3. […] Spleen were isolated and spleen weight was measured with an analytical balance.

[1] = tested on: BALB/c mice bearing CT26 colon carcinomas; assay: Splenomegaly in mice bearing CT26 colon carcinomas, agonist/antagonist evaluation; assay type: in vivo; settings: each drug 5 mg/kg i.p. daily from tumor size around 50 mm^3
Experimental: B16F1, B16F10 melanoma cells, and CT26 colon carcinoma cells were cultured in IMDM medium supplemented with 10% Fetal bovine serum (FBS). […] For evaluation of phentolamine on the effect of clonidine and guanabenz, the mice were randomized into different groups when tumors size arrived around 50 mm^3 and received daily injections of guanabenz (5 mg/kg, i.p.), phentolamine (5 mg/kg, i.p.), propranolol (5 mg/kg, i.p.), a mix of guanabenz (5 mg/kg, i.p.) and phentolamin (5 mg/kg, i.p.), clonidine (5 mg/kg, i.p.), a mix of clonidine (5 mg/kg, i.p.) and phentolamin (5 mg/kg, i.p.), a mix of clonidine (5 mg/kg, i.p.) and propranolol (5 mg/kg, i.p.) or vehicle control. Tumor size was measured every 2 days and mice were sacrificed when the tumor in control group reached 1,000 mm^3. Spleen were isolated and spleen weight was measured with an analytical balance. Spleen from mice of same age without tumors were used as controls.

[2] = tested on: mice transplanted with JAK2V617F mutated bone marrow; assay: Splenomegaly induced by myelofibrosis (JAK2V617F mutated bone marrow transplantation); assay type: in vivo; settings: for spleen weight (myelofibrosis-induced splenomegaly), prevention: treatment started one week after bone marrow transplantation, 5 mg/kg daily for three weeks; for spleen weight (myelofibrosis-induced splenomegaly), treatment: treatment started three weeks after bone marrow transplantation, splenomegaly already formed, 5 mg/kg daily for two weeks
Adra2a KO mice = settings: romiplostim 1 mg/kg s.c. days 1, 8, 15, 5 mg/kg i.p. daily for two weeks from day 8
Experimental: (§1) 8-week female C57BL/6 J wild-type and Adra2a KO mice were administered saline or 1 mg/kg of romiplostim by a subcutaneous injection into the neck skin on days 1, 8 and 15. Clonidine or guanabenz were administrated i.p. at a dose of 5 mg/kg daily for two weeks starting from day 8. Mice were dissected on day 22 and spleen weight were measured. After killing, peripheral blood was drawn by cardiac puncture, the platelet concentration was measured by Cell Counter Analyzer MS9-5V.

C57BL/6 J wild-type mice = settings: romiplostim 1 mg/kg s.c. days 1, 8, 15, 5 mg/kg i.p. daily for two weeks from day 8
Experimental: as §1

[3] = tested on: C56BL/6 Wildtype mice implanted with MC38 colon carcinomas; assay: Tumor-induced splenomegaly, MC38 colon carcinomas in wildtype mice; assay type: in vivo; settings: 5 mg/kg i.p. daily from tumor size around 50 mm^3
Experimental: (§2) C56BL/6 Wildtype or C56BL/6 Adra2a KO mice were implanted with MC38 colon carcinomas and received daily injections of vehicle control, guanabenz or clonidine (5 mg/kg, i.p.) when the tumor size was around 50 mm^3, until the day of sacrifice. Spleen weight were taken at the time of mice dissection.

[4] = tested on: C56BL/6 Adra2a KO mice implanted with MC38 colon carcinomas; assay: Tumor-induced splenomegaly, MC38 colon carcinomas in Adra2a KO mice; assay type: in vivo; settings: 5 mg/kg i.p. daily from tumor size around 50 mm^3
Experimental: as §2

TiRP-tumor bearing mice = TiRP-tumor bearing mice with ACT of 10 million P1A-specific CD8+ T cells; each drug 5 mg/kg i.p. daily from tumor size around 500 mm^3
[5] = tested on: flatworm-induced splenomegaly (schistosomiasis); settings: cited from earlier work
B16F1 tumor-bearing mice = assay: Tumor-induced splenomegaly in B16F1 tumor-bearing mice (spleen weight); assay type: in vivo; settings: 5 mg/kg i.p. daily from tumor size around 100 mm^3
Experimental: (§3) B16F1, B16F10 melanoma cells, and CT26 colon carcinoma cells were cultured in IMDM medium supplemented with 10% Fetal bovine serum (FBS). C57BL/6 mice were injected subcutaneously with 1 million B16F1 or B16F10 melanoma cells at an age between 6 to 8 weeks. The mice received daily injections of guanabenz (5 mg/kg, i.p.) or PBS when the tumor size was around 100 mm^3. Mice were sacrificed when the tumor in control group reached 1,000 mm^3. Spleen were isolated and weighted. […] TiRP tumor bearing mice received daily injections of clonidine (5 mg/kg, i.p.), romifidine (5 mg/kg, i.p.) or PBS when the tumor size was around 500 mm^3. Mice were sacrificed when the tumor in control group reached 1,500 mm^3. Spleen were isolated and spleen weight was measured with an analytical balance.

[6] = tested on: B16F10 tumor-bearing mice; assay: Tumor-induced splenomegaly in B16F10 tumor-bearing mice (spleen weight); assay type: in vivo; settings: 5 mg/kg i.p. daily from tumor size around 100 mm^3
Experimental: as §3

DBA/2 mice = assay: Splenomegaly induced by virus-mediated (Chadox_li_P1A prime, MVA_P1A boost) immunization; assay type: in vivo; settings: 5 mg/kg 2 hours before and daily after immunization, two weeks
C57BL/6J mice = assay: Splenomegaly induced by protein-mediated (Ovalbumin) immunization; assay type: in vivo; settings: 5 mg/kg 2 hours before and daily after immunization, one week
Experimental: C57BL/6J mice were immunized once by intraperitoneal (i.p.) injection of 200 μg of OVA protein adsorbed onto Alhydrogel adjuvant 2% (Sigma Aldrich®). These mice were administered 100 μg (5 mg/kg) of guanabenz 2 hours before the immunization and daily after the immunization. […] One week after the immunization, mice were sacrificed, the spleen of each mouse was collected, and spleen weight was measured with an analytical balance.

[7] = tested on: patient with obesity-related diseases, such as fatty liver; settings: cited from earlier work

Structure (SMILES)	spleen weight (tumor-induced splenomegaly) (TiRP tumor bearing mice)	spleen weight / spleen size [1]	spleen weight (myelofibrosis-induced splenomegaly), prevention [2]	spleen weight (myelofibrosis-induced splenomegaly), treatment [2]	spleen weight (romiplostim-induced splenomegaly) (Adra2a KO mice)	spleen weight (romiplostim-induced splenomegaly) (C57BL/6 J wild-type mice)	spleen weight (tumor-induced splenomegaly) [3]	spleen weight (tumor-induced splenomegaly) [4]	spleen weight / spleen size (TiRP-tumor bearing mice)	splenomegaly [5]	spleen weight (tumor-induced splenomegaly) (B16F1 tumor-bearing mice)	spleen weight (tumor-induced splenomegaly) [6]	spleen weight (immunization-induced splenomegaly) (DBA/2 mice)	spleen weight (immunization-induced splenomegaly) (C57BL/6J mice)	weight of the spleen [7]
Clc1cccc(Cl)c1N=C1NCCN1 [clonidine]	TiRP tumor-induced splenomegaly is inhibited	reduced the spleen size	significantly reduced the splenomegaly	significantly reduced the splenomegaly	not in Adra2a KO mice	significantly reduced the splenomegaly	inhibit tumor-induced splenomegaly	no inhibition is observed	reduced spleen size						
CN1C[C@H](C(=O)N[C@]2(C)O[C@@]3(O)[C@@H]4CCCN4C(=O)[C@H](Cc4ccccc4)N3C2=O)C=C2c3cccc4[nH]cc(c34)C[C@H]21 [ergotamine]										reduced flatworm-induced splenomegaly					
N=C(N)N/N=C/c1c(Cl)cccc1Cl [guanabenz]	can reverse the tumor-induced splenomegaly	reduced the spleen size	significantly reduced the splenomegaly	significantly reduced the splenomegaly			inhibit tumor-induced splenomegaly	no inhibition is observed			can reverse the tumor-induced splenomegaly	can reverse the tumor-induced splenomegaly	inhibits splenomegaly	inhibits splenomegaly	promoting a decrease in the weight of the spleen
Fc1cccc(Br)c1NC1=NCCN1 [romifidine]	TiRP tumor-induced splenomegaly is inhibited														
